Structures can show the parent of a compound that is named as a salt.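 All cell lines were grown in 96-well plates and treated with compound for 48 hours. Here, GI50 denotes the concentration required for 50% inhibition of growth.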 Active and inactive are the calls of the source. No stated cut-off is given here; in the data, active = GI50 up to about 1.1 µM and inactive = higher.

We go through four compounds from ChEMBL document CHEMBL1201862, “PubChem BioAssay data set” (2004).

Among the test systems are SK-OV-3; T47D; A498; NCI-H23; NCI-H226; SK-MEL-2; SF-295; DU-145; KM12; SF-539; Malme-3M; COLO 205; UACC-62; MOLT-4; HOP-92; M14; CAKI-1; SNB-75; BT-549; K562.
Test in all cases: NCI tumour cell line growth inhibition, 48 h

On to `C/C(=N\NC(=S)N1CCC1)c1ccccn1`, for which the GI50 was < 0.0131 µM (active) with SK-OV-3; 0.00137 µM (active) with T47D; 0.446 µM (active) with A498; 0.01 µM (active) in the test on NCI-H23; 0.293 µM (active) in the test with NCI-H226; 1.97 µM (inactive) in the test on SK-MEL-2. For the same compound, the GI50 in the test with SF-295 was 0.01 µM (active); with DU-145, 0.891 µM (active); in the test on KM12, 0.0287 µM (active); in the test on SF-539, 0.114 µM (active); in the test on Malme-3M it was 0.175 µM (active); in the test with COLO 205, 0.01 µM (active). The GI50 is < 0.016 µM (active) in the test with UACC-62; 0.01 µM (active) in the test on MOLT-4; 0.0443 µM (active) in the test on HOP-92; 0.01 µM (active) in the test on M14; 0.0398 µM (active) with CAKI-1; 0.838 µM (active) in the test on SNB-75. Further, the GI50 in the test on BT-549 is 11.5 µM (inactive); in the test with K562 it was 0.01 µM (active).
For `COC(NC(N)=O)C(=O)O` (stereo not given), the GI50 in the test on SK-OV-3, with T47D, in the test on A498, in the test with NCI-H23, with NCI-H226 and in the test on SK-MEL-2 was > 100 µM (inactive) each time. For the same compound, the GI50 in the test on SF-295, in the test on DU-145, in the test on KM12, in the test on SF-539, in the test on Malme-3M and with COLO 205 was > 100 µM (inactive) in each case. The GI50 with UACC-62, with MOLT-4, with HOP-92, in the test on M14, in the test with CAKI-1 and in the test with SNB-75 was > 100 µM (inactive) in each case. Besides, the GI50 with BT-549 and in the test on K562 was > 100 µM (inactive) throughout.
As to `COc1ccc2c(c1)O[C@@H]1[C@@H](OC3OC(CO)C(O)C(O)C3O)Oc3cc(OC)c(OC)cc3[C@]1(O)C2=O` (stereo not given in full), the GI50 in the test on SK-OV-3 is > 100 µM (inactive); with T47D it was > 100 µM (inactive); in the test with A498, > 100 µM (inactive); in the test on NCI-H23, > 100 µM (inactive); in the test on NCI-H226, 34 µM (inactive); in the test on SK-MEL-2 it was > 100 µM (inactive). Also, the GI50 in the test with SF-295, in the test with DU-145, in the test with KM12, in the test with SF-539, in the test on Malme-3M and in the test on COLO 205 was > 100 µM (inactive) in each case. Besides, the GI50 with UACC-62, with MOLT-4, in the test on HOP-92, in the test on M14, with CAKI-1 and in the test with SNB-75 was > 100 µM (inactive) throughout. In addition, the GI50 with BT-549 and in the test on K562 was > 100 µM (inactive) in each case.
On to `CN1C[C@H](C(=O)N[C@]2(C)O[C@@]3(O)[C@@H]4CCCN4C(=O)[C@H](Cc4ccccc4)N3C2=O)C=C2c3cccc4[nH]cc(c34)C[C@H]21` [ERGOTAMINE TARTRATE], for which the GI50 with SK-OV-3 is 29.9 µM (inactive); with T47D, 33 µM (inactive); in the test with A498 it was 15 µM (inactive); with NCI-H23, 21.5 µM (inactive); in the test with NCI-H226, 30.3 µM (inactive); with SK-MEL-2, 17.4 µM (inactive). Besides, the GI50 in the test on SF-295 was 19.3 µM (inactive); with DU-145 it was 22.2 µM (inactive); with KM12, 28.8 µM (inactive); in the test with SF-539, 12.1 µM (inactive); in the test with Malme-3M it was 18.3 µM (inactive); with COLO 205 it was 16.5 µM (inactive). Moreover, the GI50 was 16 µM (inactive) in the test on UACC-62; 23.9 µM (inactive) in the test on MOLT-4; 16.9 µM (inactive) in the test with HOP-92; 22.3 µM (inactive) in the test with M14; 26.4 µM (inactive) with CAKI-1; 35.6 µM (inactive) in the test on SNB-75. Besides, the GI50 in the test on BT-549 was 20.9 µM (inactive); with K562, 25.4 µM (inactive).
